Results reported in US4518581A, “Imparting low- or anti-cariogenic property to orally-usable products” (Kabushiki Kaisha Hayashibara Seibutsu Kagaku Kenkyujo, priority 1981, dated 1985).

Key:
[1] = target: T1, water-insoluble glucan producing enzyme (Streptococcus downei, UniProt P27470); experiment: Effect of saccharides on formation of water-insoluble glucan from sucrose (Experiment 3); format: biochemical, Streptococcus mutans 6715 strain; settings: saccharide reduced to 10% against sucrose: 1 ml 4 w/v % sucrose plus 1 ml 0.4 w/v % saccharide, 37° C., 16 hours
T1 construct: to the supernatant was added with ammonium sulfate to give 60% saturation; endogenous in cells; host or cells: Streptococcus mutans 6715 strain (today S. sobrinus), culture supernatant, ammonium sulfate precipitate, dialyzed
T1 sequence (P27470 39-1592): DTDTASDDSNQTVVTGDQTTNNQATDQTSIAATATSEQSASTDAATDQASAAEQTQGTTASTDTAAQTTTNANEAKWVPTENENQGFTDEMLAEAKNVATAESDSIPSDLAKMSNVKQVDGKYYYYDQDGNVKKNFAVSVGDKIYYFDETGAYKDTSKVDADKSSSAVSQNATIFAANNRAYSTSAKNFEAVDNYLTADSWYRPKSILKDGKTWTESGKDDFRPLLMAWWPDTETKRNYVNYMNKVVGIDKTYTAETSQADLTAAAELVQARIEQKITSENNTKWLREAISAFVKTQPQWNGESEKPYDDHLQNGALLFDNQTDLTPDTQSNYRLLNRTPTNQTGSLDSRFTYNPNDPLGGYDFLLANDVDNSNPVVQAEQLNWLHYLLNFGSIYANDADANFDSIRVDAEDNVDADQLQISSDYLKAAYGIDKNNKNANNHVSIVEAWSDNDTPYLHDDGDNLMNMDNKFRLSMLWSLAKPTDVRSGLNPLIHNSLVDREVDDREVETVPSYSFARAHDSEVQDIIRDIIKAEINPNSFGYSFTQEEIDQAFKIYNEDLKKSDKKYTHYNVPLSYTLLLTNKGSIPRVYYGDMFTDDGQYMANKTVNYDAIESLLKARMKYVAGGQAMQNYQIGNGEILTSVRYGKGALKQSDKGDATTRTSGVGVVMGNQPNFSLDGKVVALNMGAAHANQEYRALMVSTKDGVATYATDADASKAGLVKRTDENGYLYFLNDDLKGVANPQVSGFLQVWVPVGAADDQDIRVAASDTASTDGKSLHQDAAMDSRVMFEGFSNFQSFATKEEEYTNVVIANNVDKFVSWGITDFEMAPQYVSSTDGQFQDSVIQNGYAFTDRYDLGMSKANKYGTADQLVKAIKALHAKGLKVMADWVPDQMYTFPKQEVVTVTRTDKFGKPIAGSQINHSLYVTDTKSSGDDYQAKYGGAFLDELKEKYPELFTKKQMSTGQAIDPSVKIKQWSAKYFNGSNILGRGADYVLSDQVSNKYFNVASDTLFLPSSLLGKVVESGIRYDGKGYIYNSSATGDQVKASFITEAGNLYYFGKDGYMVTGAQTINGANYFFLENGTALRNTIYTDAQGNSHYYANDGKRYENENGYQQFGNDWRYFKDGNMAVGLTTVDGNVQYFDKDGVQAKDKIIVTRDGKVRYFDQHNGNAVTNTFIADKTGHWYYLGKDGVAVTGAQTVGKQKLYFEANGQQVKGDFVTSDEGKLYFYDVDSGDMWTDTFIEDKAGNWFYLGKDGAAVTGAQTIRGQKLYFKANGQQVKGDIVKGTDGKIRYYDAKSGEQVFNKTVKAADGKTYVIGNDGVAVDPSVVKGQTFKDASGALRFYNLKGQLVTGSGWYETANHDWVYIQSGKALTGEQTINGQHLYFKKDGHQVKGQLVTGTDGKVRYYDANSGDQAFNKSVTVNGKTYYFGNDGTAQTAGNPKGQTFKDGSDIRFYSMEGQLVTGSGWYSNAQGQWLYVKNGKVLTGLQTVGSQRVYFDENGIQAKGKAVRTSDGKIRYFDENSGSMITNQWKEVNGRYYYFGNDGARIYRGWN

[2] = target: T1, water-insoluble glucan producing enzyme; experiment: as above; format: biochemical, Streptococcus mutans 6715 strain; settings: 1 ml 4 w/v % sucrose plus 1 ml 4 w/v % saccharide, 0.02 units enzyme, 37° C., 16 hours; for A: amounts of water-insoluble glucan formed: sucrose control 300
Protocol: After completion of the cultivation, the culture was separated into cell precipitant and supernatant. Thereafter, to the supernatant was added with ammonium sulfate to give 60% saturation, and the resultant precipitant was dialyzed against 0.1M phosphate buffer (pH 7.2) to obtain an aqueous solution containing the enzyme.
The titers of the enzyme were assayed as follows: A mixture solution, consisting of 1 ml of 0.2M aqueous sucrose solution, 1 ml of water, 1 ml of 0.1M phosphate buffer containing 0.05 w/v % NaN3, and 0.5 ml of the enzyme solution (below 0.05 units), is incubated at 37° C. for 9 hours, followed by centrifugation of the reaction mixture. The resultant precipitant is mixed with 4 ml of 0.5N sodium hydroxide solution, and then incubated at this temperature for an additional one hour to dissolve the precipitant. The amount of water-insoluble glucan formed during the enzymatic reaction is then measured. One unit of the enzyme is defined as the amount of enzyme that transfers 1 μmole glucose from sucrose to the water-insoluble glucan in one minute.
Effects of some saccharides on the formation of water-insoluble glucan were tested: Water-insoluble glucan formation and inhibition thereof were determined according to the enzyme assay method as described in EXPERIMENT 1, except that the mixture solution contained sucrose, or sucrose and each saccharide as listed in TABLE I. The experiment was carried out as follows: A mixture solution, consisting of 1 ml of 4 w/v % aqueous sucrose solution, 1 ml of 4 w/v % aqueous solution of each saccharide as listed in TABLE I, 1.5 ml of 0.1M phosphate buffer containing 0.05 w/v % NaN3, and 0.5 ml of the enzyme solution (0.02 units), was incubated at 37° C. for 16 hours, and the water-insoluble glucan formation in the reaction mixture was determined according to the enzyme assy method.
In a control experiment, 1 ml of the above described saccharide solution was replaced with the same amount of water.
The inhibition degree was calculated with following equation:
Inhibition degree (%)=100-A/B×100
where A and B are respective amounts of the water-insoluble glucan formed (μg/ml) when the mixture solution contained sucrose or sucrose and each of the saccharides.

[3] = system: Streptococcus mutans 6715 strain; experiment: Organic acid formation from saccharides by Streptococcus mutans cells, pH-measurement (Experiment 4); format: cell-based; settings: 37° C., 30 minutes; for organic acid formation from the saccharide: Streptococcus mutans 6715 cells; for pH-Level of the reaction mixture (organic acid formation): cell suspension, Stephan's buffer (pH 7.0), saccharide solution
Protocol: Organic acid formation from some saccharides by Streptococcus mutans was tested: Streptococcus mutans 6715 strain was cultivaed similarly as in EXPERIMENT 1, and the cells, obtained by centrifuging the culture, were washed with 0.9 w/v % sodium chloride solution, followed by additional centrifugation. Two ml of a mixture solution, consisting of 0.2 ml of the cell suspension, prepared from about 100 ml of the culture, 1.5 ml of Stephan's buffer, and 0.3 ml aqueous solution of each saccharide as listed in TABLE II, was incubated at 37° C. for 30 minutes, followed by pH-measurement of the reaction mixture. The Stephan's buffer was prepared by the method as reported by R. M. Stephan et al., Journal of Dental Research, Vol.26, pp.15-41 (1947): One ml of Solution I, prepared by dissolving 17.89 g Na2 HPO4. 12H2 O, 7.92 g KOH and 6.81 g KH2 PO4 in water to give a final volume of 100 ml, was placed in a 100-ml volumetric flask, and mixed with about 90 ml of water. To the flask was added 1 ml of Solution II, prepared by dissolving 4.54 g KH2 PO4, 0.32 g MgSO4.7H2 O, 0.57 g CaSO4.2H2 O and 10 ml of 3.5% hydrochloric acid solution in water to give a final volume of 100 ml. This mixture was diluted with additional water to obtain 100 ml of Stephan's buffer (pH 7.0).
The results are given in TABLE II, wherein the organic acid formation from the saccharides can be estimated by the pH-values.

| Compound | C: inhibition degree of water-insoluble glucan formation [1] | C: inhibition degree of water-insoluble glucan formation ([1]; listed as panose) | A: amounts of water-insoluble glucan formed [2] | organic acid formation from the saccharide [3] | pH-Level of the reaction mixture (organic acid formation) [3] | B: inhibition degree on water-insoluble glucan formation [2] |
| --- | --- | --- | --- | --- | --- | --- |
| OC[C@H]1O[C@H](OC[C@H]2O[C@H](O[C@H]3[C@H](O)[C@@H](O)C(O)O[C@@H]3CO)[C@H](O)[C@@H](O)[C@@H]2O)[C@H](O)[C@@H](O)[C@@H]1O (stereo partly drawn) [Panose, 4-O-α-isomaltosyl glucose] | 47% | 45-60% | 48 µg/mL | no organic acid formation | 7.0 | – |
| OC[C@H](O)[C@@H](O)[C@H](O)[C@H](O)CO[C@H]1O[C@H](CO[C@H]2O[C@H](CO[C@H]3O[C@H](CO[C@H]4O[C@H](CO)[C@@H](O)[C@H](O)[C@H]4O)[C@@H](O)[C@H](O)[C@H]3O)[C@@H](O)[C@H](O)[C@H]2O)[C@@H](O)[C@H](O)[C@H]1O [Isomaltopentaitol, 6^3 -O-α-isomaltosyl isomaltotriitol] | – | – | 66 µg/mL | no organic acid formation | 7.0 | – |
| OC[C@@H](O)[C@@H](O[C@H]1O[C@H](CO)[C@@H](O[C@H]2O[C@H](CO)[C@@H](O)[C@H](O)[C@H]2O)[C@H](O)[C@H]1O)[C@H](O)[C@@H](O)CO [Maltotriitol] | – | – | 262 µg/mL | – | 7.0 | 13% |
| OC[C@H]1OC(O)C[C@@H](O)[C@@H]1O (stereo partly drawn) [2-Deoxy Glucose] | – | – | 285 µg/mL | – | 7.0 | 5% |
| O=C(CO)[C@@H](O)[C@H](O[C@H]1O[C@H](CO)[C@@H](O)[C@H](O)[C@H]1O)[C@H](O)CO [Maltulose] | – | – | 180 µg/mL | – | 7.0 | 40% |
| O=C(CO)[C@@H](O)[C@H](O)[C@@H](O)CO [L-Sorbose] | – | – | 261 µg/mL | – | 7.0 | 13% |
| OC[C@H]1O[C@H](OC[C@H]2OC(O)[C@H](O)[C@@H](O)[C@@H]2O)[C@H](O)[C@@H](O)[C@@H]1O (stereo partly drawn) [Isomaltose] | – | – | 72 µg/mL | – | 7.0 | – |
| OC[C@H]1O[C@H](O[C@H]2[C@H](O)[C@@H](O)[C@@H](O[C@H]3[C@H](O)[C@@H](O)C(O)O[C@@H]3CO)O[C@@H]2CO)[C@H](O)[C@@H](O)[C@@H]1O (stereo partly drawn) [Maltotriose] | – | – | 213 µg/mL | – | 5.0 | 29% |
| OC[C@@H](O)[C@@H](O[C@H]1O[C@H](CO)[C@@H](O[C@H]2O[C@H](CO)[C@@H](O[C@H]3O[C@H](CO)[C@@H](O[C@H]4O[C@H](CO)[C@@H](O)[C@H](O)[C@H]4O)[C@H](O)[C@H]3O)[C@H](O)[C@H]2O)[C@H](O)[C@H]1O)[C@H](O)[C@@H](O)CO [Maltopentaitol] | – | – | 265 µg/mL | – | 7.0 | 12% |
| OC[C@@H](O)[C@@H](O[C@H]1O[C@H](CO[C@H]2O[C@H](CO)[C@@H](O)[C@H](O)[C@H]2O)[C@@H](O)[C@H](O)[C@H]1O)[C@H](O)[C@@H](O)CO [Pannitol, 4-O-α-isomaltosyl glucitol] | – | – | 70 µg/mL | no organic acid formation | 7.0 | – |
| OC[C@H]1O[C@@H](OC[C@H]2OC(O)[C@H](O)[C@@H](O)[C@@H]2O)[C@H](O)[C@@H](O)[C@@H]1O (stereo partly drawn) [Gentiobiose] | – | – | 300 µg/mL | – | 7.0 | – |
| CC(=O)N[C@H]1C(O)O[C@H](CO)[C@@H](O)[C@@H]1O (stereo partly drawn) [N--Acetyl glucosamine] | – | – | 285 µg/mL | – | 7.0 | 5% |
| OC[C@H](O)[C@@H](O)[C@H](O)[C@H](O)CO[C@H]1O[C@H](CO)[C@@H](O[C@H]2O[C@H](CO)[C@@H](O)[C@H](O)[C@H]2O)[C@H](O)[C@H]1O [Isopannitol] | – | – | 270 µg/mL | – | 7.0 | 10% |
| OC[C@H]1O[C@H](O[C@H]2[C@H](O)[C@@H](O)[C@@H](O[C@H]3[C@H](O)[C@@H](O)[C@@H](O[C@H]4[C@H](O)[C@@H](O)C(O)O[C@@H]4CO)O[C@@H]3CO)O[C@@H]2CO)[C@H](O)[C@@H](O)[C@@H]1O (stereo partly drawn) [Maltotetraose] | – | – | 255 µg/mL | – | 5.3 | 15% |
| OC[C@H]1O[C@H](O[C@H]2[C@H](O)[C@@H](O)[C@@H](OC[C@H]3OC(O)[C@H](O)[C@@H](O)[C@@H]3O)O[C@@H]2CO)[C@H](O)[C@@H](O)[C@@H]1O (stereo partly drawn) [Isopanose] | – | – | 282 µg/mL | – | 7.0 | 4% |
| OC1OC[C@H](O)[C@H](O)[C@H]1O (stereo partly drawn) [L-Arabinose] | – | – | 294 µg/mL | – | 7.0 | 2% |
| OC[C@@H](O)[C@H](O)[C@@H](O)CO [Xylitol] | – | – | 280 µg/mL | – | 7.0 | 7% |
| O=C(CO)[C@@H](O[C@H]1O[C@H](CO)[C@@H](O)[C@H](O)[C@H]1O)[C@H](O)[C@H](O)CO [Turanose] | – | – | 273 µg/mL | – | 7.0 | 9% |
